Like-named read-outs stand apart in the source and are kept apart here.
What was measured:
[1] = molecular target: T1, WT ITK (His6-tagged human wild-type ITK kinase domain) (Homo sapiens, UniProt Q08881); assay: ADP-Glo kinase assay; format: biochemical
T1 construct: Ni-NTA, Q Sepharose, Superdex 200
T1 sequence (Q08881 357-620 limits assumed): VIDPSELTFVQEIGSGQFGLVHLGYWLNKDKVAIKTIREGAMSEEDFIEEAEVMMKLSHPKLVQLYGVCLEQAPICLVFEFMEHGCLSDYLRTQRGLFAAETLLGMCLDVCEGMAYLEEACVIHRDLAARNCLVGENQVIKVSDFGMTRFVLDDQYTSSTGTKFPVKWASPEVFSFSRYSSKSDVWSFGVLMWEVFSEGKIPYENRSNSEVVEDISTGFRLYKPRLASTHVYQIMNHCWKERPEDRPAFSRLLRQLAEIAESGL
From the text: ADP-Glo kinase assay on WT ITK (His6-tagged human wild-type ITK kinase domain)

[2] = molecular target: T1, WT ITK (His6-tagged human wild-type ITK kinase domain); assay: SPR (Biacore, NTA capture coupling); format: binding
[3] = molecular target: T1, WT ITK (His6-tagged human wild-type ITK kinase domain); assay: biochemical kinase inhibition assay
CLK1 = CLK1 (Homo sapiens, UniProt P49759); assay: DiscoveRx KINOMEscan; settings: read-out: Percentage of control binding / J-31
From the text: DiscoveRx KINOMEscan on CLK1

LCK = LCK (Homo sapiens, UniProt P06239); assay: DiscoveRx KINOMEscan; settings: read-out: Percentage of control binding / J-95
From the text: DiscoveRx KINOMEscan on LCK

HCK = HCK (Homo sapiens, UniProt P08631); assay: DiscoveRx KINOMEscan; settings: read-out: Percentage of control binding / J-95
From the text: DiscoveRx KINOMEscan on HCK

Sequence of LCK (P06239 2-509): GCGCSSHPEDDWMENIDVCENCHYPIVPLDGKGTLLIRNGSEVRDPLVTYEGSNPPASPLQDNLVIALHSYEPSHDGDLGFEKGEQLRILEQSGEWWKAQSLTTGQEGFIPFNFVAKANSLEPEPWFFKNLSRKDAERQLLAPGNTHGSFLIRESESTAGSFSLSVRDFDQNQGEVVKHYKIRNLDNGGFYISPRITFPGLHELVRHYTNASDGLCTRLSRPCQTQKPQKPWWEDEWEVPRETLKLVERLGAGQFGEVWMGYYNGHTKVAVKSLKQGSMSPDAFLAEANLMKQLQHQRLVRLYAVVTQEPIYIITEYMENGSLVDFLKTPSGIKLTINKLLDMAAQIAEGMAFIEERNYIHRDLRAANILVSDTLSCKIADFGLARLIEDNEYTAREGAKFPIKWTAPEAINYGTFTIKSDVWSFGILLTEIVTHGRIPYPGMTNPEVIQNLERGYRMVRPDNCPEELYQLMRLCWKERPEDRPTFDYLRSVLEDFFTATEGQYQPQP
Sequence of HCK (P08631 2-526): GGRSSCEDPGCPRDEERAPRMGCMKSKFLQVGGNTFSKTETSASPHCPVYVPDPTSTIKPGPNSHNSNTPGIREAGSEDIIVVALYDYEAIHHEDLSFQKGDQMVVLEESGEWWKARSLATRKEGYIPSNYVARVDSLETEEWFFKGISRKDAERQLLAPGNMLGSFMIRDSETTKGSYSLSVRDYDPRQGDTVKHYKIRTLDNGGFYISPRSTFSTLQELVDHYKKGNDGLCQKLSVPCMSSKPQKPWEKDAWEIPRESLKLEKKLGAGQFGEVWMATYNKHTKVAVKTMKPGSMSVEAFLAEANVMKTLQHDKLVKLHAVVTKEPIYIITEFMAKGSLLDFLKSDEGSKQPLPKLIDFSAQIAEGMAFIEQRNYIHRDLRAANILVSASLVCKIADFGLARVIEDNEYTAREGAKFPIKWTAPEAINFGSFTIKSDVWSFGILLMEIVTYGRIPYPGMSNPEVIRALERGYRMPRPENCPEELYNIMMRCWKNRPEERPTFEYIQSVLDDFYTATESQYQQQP
Sequence of CLK1 (P49759 whole entry): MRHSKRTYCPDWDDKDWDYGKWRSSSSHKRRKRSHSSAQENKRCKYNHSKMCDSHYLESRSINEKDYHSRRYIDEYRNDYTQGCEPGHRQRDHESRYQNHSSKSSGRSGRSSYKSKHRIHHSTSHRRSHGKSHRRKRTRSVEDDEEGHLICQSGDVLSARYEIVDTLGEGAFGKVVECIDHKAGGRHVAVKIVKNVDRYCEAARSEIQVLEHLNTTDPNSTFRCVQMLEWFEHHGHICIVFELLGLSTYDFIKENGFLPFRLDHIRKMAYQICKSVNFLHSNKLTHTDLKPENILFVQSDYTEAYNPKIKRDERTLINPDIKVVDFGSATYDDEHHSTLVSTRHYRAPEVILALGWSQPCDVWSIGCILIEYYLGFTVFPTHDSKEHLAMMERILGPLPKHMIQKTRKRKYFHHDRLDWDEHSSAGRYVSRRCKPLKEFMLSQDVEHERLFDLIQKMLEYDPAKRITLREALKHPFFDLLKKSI

| SMILES | IC50 [1] [nM] | Kd ([2]; read-out: K D) [nM] | further results |
| --- | --- | --- | --- |
| COc1cc(C)c(Sc2cnc(NC(=O)c3ccc(CNC(C)C(C)(C)C)cc3)s2)cc1C(=O)N1CCN(C(C)=O)CC1 (centres unmarked) [A, BMS-509744] | 2.5 | 1.3 |  |
| COc1cc(C)c(Sc2cnc(NC(C)=O)s2)cc1C(=O)N1CCN(C(C)=O)CC1 [B, Derivative of A] | 260 | 75 |  |
| CC(C)Oc1ccc2cccc(-n3cc(NC(N)=O)c(C(N)=O)n3)c2c1 [C, Pfizer compound 9] | 24 | 25 |  |
| CC(=O)N1CCCC(n2nc(-c3cccc(C(=O)Nc4ccc(C(C)C)cc4)c3)c3c(N)ncnc32)C1 (centres unmarked) [E, Derivative of D] | 460 | 1100 |  |
| CCc1ccc2nc(Nc3cc(Cc4ccccc4)nc(N[C@H]4CC[C@H](O)CC4)n3)sc2c1 [G, GSK compound 13] | 3.5 | 3.6 |  |
| COc1ccc(OCCn2c(NC(=O)c3ccco3)nc3ccccc32)cc1 [J-31] |  |  | IC50 [3]: 5500 nM; Kd [2]: 3400 nM; remaining binding at 50 µM (CLK1): 21% |
| CCOC(=O)/C=C1\CC(=O)Nc2cc(C)c(C)cc2N1 [J-95] |  |  | remaining binding at 20 µM (LCK): 29%; IC50 [3]: 3300 nM; Kd [2]: 1000 nM; remaining binding at 20 µM (HCK): 33% |

From publication PMC6120236 (FEBS Open Bio, 2018)
